Measured values published in ChEMBL document CHEMBL2010748, “Structure-Activity Relationship Studies of HIV-1 Integrase Oligonucleotide Inhibitors” (ACS Med Chem Lett, 2011).

What follows are compounds tested against Human immunodeficiency virus type 1 integrase (Human immunodeficiency virus 1, UniProt Q7ZJM1) (assay: Inhibition of Human immunodeficiency virus 1 integrase 3'-processing activity expressed in Escherichia coli using 21-mer DNA and Mg2+ after 2 hrs by polyacrylamide gel electrophoresis).
Sequence of Human immunodeficiency virus type 1 integrase (Q7ZJM1 whole entry): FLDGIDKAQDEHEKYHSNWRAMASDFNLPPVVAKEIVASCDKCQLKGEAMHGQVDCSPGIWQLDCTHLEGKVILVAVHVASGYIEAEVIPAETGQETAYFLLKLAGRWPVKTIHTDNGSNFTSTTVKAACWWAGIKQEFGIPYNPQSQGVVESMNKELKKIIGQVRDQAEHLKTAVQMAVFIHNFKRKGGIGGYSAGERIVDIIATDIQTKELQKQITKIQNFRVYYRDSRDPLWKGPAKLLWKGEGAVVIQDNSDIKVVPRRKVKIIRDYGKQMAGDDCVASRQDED

Going from `Cc1cn([C@H]2C[C@H](OP(=O)(O)OCCCOP(=O)(O)OCCCOP(=O)(O)OCCCOP(=O)(O)OCCCOP(=O)(O)OCCCOP(=O)(O)OCCCOP(=O)(O)OC[C@H]3O[C@@H](n4cc(C)c(=O)[nH]c4=O)C[C@@H]3O)[C@@H](COP(=O)(O)O[C@H]3C[C@H](n4cc(C)c(=O)[nH]c4=O)O[C@@H]3COP(=O)(O)O[C@H]3C[C@H](n4cnc5c(=O)[nH]c(N)nc54)O[C@@H]3COP(=O)(O)O[C@H]3C[C@H](n4cnc5c(=O)[nH]c(N)nc54)O[C@@H]3COP(=O)(O)OCCCCCCNC(=O)c3cc(Cl)c(C(=O)O)c(-c4c5cc(Cl)c(=O)c(Cl)c-5oc5c(Cl)c(O)c(Cl)cc45)c3Cl)O2)c(=O)[nH]c1=O` to `CO[C@@H]1[C@H](O)[C@@H](COP(=O)(O)O[C@H]2[C@@H](OC)[C@H](n3cnc4c(=O)[nH]c(N)nc43)O[C@@H]2COP(=O)(O)O[C@H]2[C@@H](OC)[C@H](n3ccc(=O)[nH]c3=O)O[C@@H]2COP(=O)(O)O[C@H]2[C@@H](OC)[C@H](n3cnc4c(=O)[nH]c(N)nc43)O[C@@H]2COP(=O)(O)O[C@H]2[C@@H](OC)[C@H](n3ccc(=O)[nH]c3=O)O[C@@H]2COP(=O)(O)O[C@H]2[C@@H](OC)[C@H](n3ccc(=O)[nH]c3=O)O[C@@H]2COP(=O)(O)O[C@H]2[C@@H](OC)[C@H](n3ccc(=O)[nH]c3=O)O[C@@H]2COP(=O)(O)O[C@H]2[C@@H](OC)[C@H](n3ccc(=O)[nH]c3=O)O[C@@H]2COP(=O)(O)O[C@H]2[C@@H](OC)[C@H](n3ccc(=O)[nH]c3=O)O[C@@H]2COP(=O)(O)O[C@H]2[C@@H](OC)[C@H](n3cnc4c(=O)[nH]c(N)nc43)O[C@@H]2COP(=O)(O)O[C@H]2[C@@H](OC)[C@H](n3cnc4c(=O)[nH]c(N)nc43)O[C@@H]2COP(=O)(O)OCCCCCCNC(=O)c2cc(Cl)c(C(=O)O)c(-c3c4cc(Cl)c(=O)c(Cl)c-4oc4c(Cl)c(O)c(Cl)cc34)c2Cl)O[C@H]1n1ccc(=O)[nH]c1=O`, the IC50 falls from 310 nM to 52 nM (6-fold).

First: CO[C@@H]1[C@H](OP(=O)(O)OC[C@H]2O[C@@H](n3ccc(=O)[nH]c3=O)[C@H](OC)[C@@H]2OP(=O)(O)OC[C@H]2O[C@@H](n3ccc(=O)[nH]c3=O)[C@H](OC)[C@@H]2OP(=O)(O)OC[C@H]2O[C@@H](n3cnc4c(=O)[nH]c(N)nc43)[C@H](OC)[C@@H]2OP(=O)(O)OC[C@H]2O[C@@H](n3ccc(=O)[nH]c3=O)[C@H](OC)[C@@H]2OP(=O)(O)OC[C@H]2O[C@@H](n3cnc4c(=O)[nH]c(N)nc43)[C@H](OC)[C@@H]2OP(=O)(O)OC[C@H]2O[C@@H](n3ccc(=O)[nH]c3=O)[C@H](OC)[C@@H]2OP(=O)(O)OCCCCCCNC(=S)Nc2ccc(-c3c4cc(Br)c(=O)c(Br)c-4oc4c(Br)c(O)c(Br)cc34)c(C(=O)O)c2)[C@@H](COP(=O)(O)O[C@H]2[C@@H](OC)[C@H](n3ccc(=O)[nH]c3=O)O[C@@H]2COP(=O)(O)O[C@H]2[C@@H](OC)[C@H](n3ccc(=O)[nH]c3=O)O[C@@H]2COP(=O)(O)O[C@H]2[C@@H](OC)[C@H](n3cnc4c(=O)[nH]c(N)nc43)O[C@@H]2COP(=O)(O)O[C@H]2[C@@H](OC)[C@H](n3cnc4c(=O)[nH]c(N)nc43)O[C@@H]2CO)O[C@H]1n1ccc(=O)[nH]c1=O
Second: CO[C@@H]1[C@H](O)[C@@H](COP(=O)(S)O[C@H]2[C@@H](OC)[C@H](n3cnc4c(=O)[nH]c(N)nc43)O[C@@H]2COP(=O)(S)O[C@H]2[C@@H](OC)[C@H](n3ccc(=O)[nH]c3=O)O[C@@H]2COP(=O)(S)O[C@H]2[C@@H](OC)[C@H](n3cnc4c(=O)[nH]c(N)nc43)O[C@@H]2COP(=O)(S)O[C@H]2[C@@H](OC)[C@H](n3ccc(=O)[nH]c3=O)O[C@@H]2COP(=O)(S)O[C@H]2[C@@H](OC)[C@H](n3ccc(=O)[nH]c3=O)O[C@@H]2COP(=O)(S)O[C@H]2[C@@H](OC)[C@H](n3ccc(=O)[nH]c3=O)O[C@@H]2COP(=O)(S)O[C@H]2[C@@H](OC)[C@H](n3ccc(=O)[nH]c3=O)O[C@@H]2COP(=O)(S)O[C@H]2[C@@H](OC)[C@H](n3ccc(=O)[nH]c3=O)O[C@@H]2COP(=O)(S)O[C@H]2[C@@H](OC)[C@H](n3cnc4c(=O)[nH]c(N)nc43)O[C@@H]2COP(=O)(S)O[C@H]2[C@@H](OC)[C@H](n3cnc4c(=O)[nH]c(N)nc43)O[C@@H]2COP(=O)(S)OCCCCCCNC(=O)c2cc(Cl)c(C(=O)O)c(-c3c4cc(Cl)c(=O)c(Cl)c-4oc4c(Cl)c(O)c(Cl)cc34)c2Cl)O[C@H]1n1ccc(=O)[nH]c1=O (stereo not given in full)
The IC50 of the first is 2.5-fold higher: 48 nM for the first, 19 nM for the second.

In the case of `CCCCCCCC/C=C\CCCCCCCC(=O)NCCCOCC(O)COP(=O)(S)O[C@H]1[C@@H](OC)[C@H](n2ccc(=O)[nH]c2=O)O[C@@H]1COP(=O)(S)O[C@H]1[C@@H](OC)[C@H](n2cnc3c(=O)[nH]c(N)nc32)O[C@@H]1COP(=O)(S)O[C@H]1[C@@H](OC)[C@H](n2ccc(=O)[nH]c2=O)O[C@@H]1COP(=O)(S)O[C@H]1[C@@H](OC)[C@H](n2cnc3c(=O)[nH]c(N)nc32)O[C@@H]1COP(=O)(S)O[C@H]1[C@@H](OC)[C@H](n2ccc(=O)[nH]c2=O)O[C@@H]1COP(=O)(S)O[C@H]1[C@@H](OC)[C@H](n2ccc(=O)[nH]c2=O)O[C@@H]1COP(=O)(S)O[C@H]1[C@@H](OC)[C@H](n2ccc(=O)[nH]c2=O)O[C@@H]1COP(=O)(S)O[C@H]1[C@@H](OC)[C@H](n2ccc(=O)[nH]c2=O)O[C@@H]1COP(=O)(S)O[C@H]1[C@@H](OC)[C@H](n2ccc(=O)[nH]c2=O)O[C@@H]1COP(=O)(S)O[C@H]1[C@@H](OC)[C@H](n2cnc3c(=O)[nH]c(N)nc32)O[C@@H]1COP(=O)(S)O[C@H]1[C@@H](OC)[C@H](n2cnc3c(=O)[nH]c(N)nc32)O[C@@H]1COP(=O)(S)OCCCCCCNC(=O)c1cc(Cl)c(C(=O)O)c(-c2c3cc(Cl)c(=O)c(Cl)c-3oc3c(Cl)c(O)c(Cl)cc23)c1Cl` (stereo not given in full), the IC50 is reported as 20 nM.
